Where “and” joins values, the source holds several entries; their conditions need not be identical. Equal entries are not always repeated.
Assays:
NU-Foxn1nu nude mice [1] = assay: Whole blood hematology of treated xenograft mice; type: in vivo, mouse; settings: for Basophils / Eosinophils / Haemoglobin / Hematocrit / Lymphocytes / MCH / MCHC / MCV / MPV / Monocytes / Neutrophils / RDW-CV: individual mice
Experimental: (§1) PANC1 cells were then trypsinized and resuspended in RPMI culture medium with 40% Matrigel (no. 45354234, Corning® Matrigel® Basement Membrane Matrix, LDEV-free, Cultek, Spain) at a concentration of 1 × 10^5 cells per 50 μL, and then 50 μL of the resuspended cells were subcutaneously injected into the right and left flanks of female 8 week-old NU-Foxn1nu nude mice (Janvier Labs, France). Tumor growth and volumes were monitored every 2–3 days for up to 4 weeks with a caliper, and tumor volumes (mm^3) were computed using the formula: 0.5 × D12 × D2, where D1 and D2 are the width or the […] diameter and the length or the smallest diameter of a given tumor, respectively. At the end of the experiment, mice were sacrificed, and tumors extracted, photographed, and weighed. (ii) For xenograft in vivo treatment experiments, 1 × 10^6 PANC1 cells resuspended in RPMI culture medium supplemented with 40% Matrigel (Corning®) were orthotopically injected in the pancreas of female NU-Foxn1nu nude mice (Janvier Labs, France). Approximately 2 months post injection, tumors were excised, cut into identical pieces of ~50 mm^3 and implanted (with RPMI culture medium supplemented with 40% Matrigel® Corning®) subcutaneously into the left and right flanks of 15 8 week-old NU-Foxn1nu nude mice (Janvier, France). […] Control mice were treated with 100 µl of physiological saline (0.9% NaCl). Tumor volumes were determined twice per week by caliper measurements throughout the course of the study as described above. At the indicated end point, mice were sacrificed, weighed, blood was collected in EDTA tubes (Aquisel, Cat no. 107545), urine was collected in 1.5 ml Eppendorf tubes, and tumors were excised, weighed, photographed, and fixed in 4% Paraformaldehyde (Alfa Aesar™).
(§2) Whole blood was analyzed with an Element HT5, Veterinary Hematology Analyzer (Scil animal care company GmbH, Madrid, Spain) and plasma was analyzed at the Analytical Laboratory of the Hospital Fundación Jiménez Díaz. Plasma-EDTA samples were examined for markers of renal (urea, BUN, and creatinine) and liver [bilirubin and GGT (γ-Glutamyltransferase)] injury. Urine was analyzed for protein, creatinine and glucose. Urea, creatinine, and glucose were detected by enzymatic assays, total protein by turbidimetry, and bilirubin and GGT via a colorimetric assay in the Cobas® Roche 701 module (a fully automated, high throughput photometric analyzer for a large array of quantitative and qualitative in vitro tests), following the manufacturer’s instructions.

NU-Foxn1nu nude mice [2] = assay: Urine analysis of treated xenograft mice; type: in vivo, mouse
Experimental: as §1, §2

[3] = system: PANC1 cells in NU-Foxn1nu nude mice; assay: Xenograft of pre-treated PANC1 cells; type: in vivo, mouse; settings: for Tumor Growth (mm3): ND: No Detected
Experimental: as §1

NU-Foxn1nu nude mice [4] = assay: Plasma biochemistry (renal and liver injury markers) of treated xenograft mice; type: in vivo, mouse; settings: for BUN / Urea: blood
Experimental: as §1, §2

[5] = system: PANC1 xenografted tumors in NU-Foxn1nu nude mice; assay: PANC1 xenograft in vivo treatment; design: species or system mouse; settings: for Fold-change in tumor volume vs d0: individual tumors
Experimental: as §1

C57Bl6 mice = assay: In vivo safety: weight and Irwin's test after tail vein injection; design: species or system mouse; settings: 1.4 mg/kg tail vein injection, early acute time points
[6] = 17 days of I5 treatment, 1.4 mg/kg r.o. or i.p.
[7] = Intra-Peritoneal group (I5 1.4 mg/kg), single mice
[8] = Intra-Peritoneal group (I5 1.4 mg/kg), single mice, 1.4 mg/kg
[9] = Retro-Orbital group (I5 1.4 mg/kg), single mice, 1.4 mg/kg
[10] = Intra-Peritoneal group (I5 1.4 mg/kg), d17, single mice, 1.4 mg/kg
[11] = Retro-Orbital group (I5 1.4 mg/kg), d17, single mice, 1.4 mg/kg
[12] = PANC1 xenograft, 1.4 mg/kg r.o.

Compound: CC(C)[NH][Pt@SP3]([I])([I])[NH]C(C)C [I5, trans-[PtI2(isopropylamine)2]]
- adverse effects on hematocrit parameters (NU-Foxn1nu nude mice [1]; [6]): no adverse effects
- Basophils (NU-Foxn1nu nude mice [1]; Intra-peritoneal): 0.41 109 cells/L and 0.45 109 cells/L and 0.47 109 cells/L and 0.86 109 cells/L
- Eosinophils (NU-Foxn1nu nude mice [1]; Intra-peritoneal): 0.45 109 cells/L and 0.33 109 cells/L and 0.19 109 cells/L and 0.47 109 cells/L
- Haemoglobin (NU-Foxn1nu nude mice [1]; Intra-peritoneal): 18.5 g/dL and 17.5 g/dL and 19.1 g/dL and 17.7 g/dL
- Hematocrit (NU-Foxn1nu nude mice [1]; Intra-peritoneal): 43.4% and 39.8% and 44.6%
- Lymphocytes (NU-Foxn1nu nude mice [1]; Intra-peritoneal): 4.49 109 cells/L and 2.36 109 cells/L and 3.04 109 cells/L and 4.43 109 cells/L
- MCH (NU-Foxn1nu nude mice [1]; Intra-peritoneal): 19.3 pg and 19.1 pg and 19.2 pg and 19.7 pg
- MCHC (NU-Foxn1nu nude mice [1]; Intra-peritoneal): 42.6 g/dL and 44 g/dL and 42.8 g/dL and 44.4 g/dL
- MCV (NU-Foxn1nu nude mice [1]; Intra-peritoneal): 45.3 fL and 43.5 fL and 44.8 fL and 44.2 fL
- MPV (NU-Foxn1nu nude mice [1]; Intra-peritoneal): 6.1 fL and 5.5 fL and 6 fL
- Monocytes (NU-Foxn1nu nude mice [1]; Intra-peritoneal): 1.17 109 cells/L and 0.96 109 cells/L and 0.45 109 cells/L and 3.1 109 cells/L
- Neutrophils (NU-Foxn1nu nude mice [1]; Intra-peritoneal): 4.24 109 cells/L and 2.95 109 cells/L and 1.59 109 cells/L and 5.08 109 cells/L
- RDW-CV (NU-Foxn1nu nude mice [1]; Intra-peritoneal): 13.9% and 14.8% and 14.3%
- Basophils (NU-Foxn1nu nude mice [1]; Retro-orbital): 0.43 109 cells/L and 0.62 109 cells/L and 0.64 109 cells/L
- Eosinophils (NU-Foxn1nu nude mice [1]; Retro-orbital): 0.21 109 cells/L and 0.31 109 cells/L and 0.34 109 cells/L
- Haemoglobin (NU-Foxn1nu nude mice [1]; Retro-orbital): 18.3 g/dL
- Hematocrit (NU-Foxn1nu nude mice [1]; Retro-orbital): 42.9% and 41.4% and 42.8%
- Lymphocytes (NU-Foxn1nu nude mice [1]; Retro-orbital): 2.46 109 cells/L and 3.66 109 cells/L and 5.37 109 cells/L
- MCH (NU-Foxn1nu nude mice [1]; Retro-orbital): 19 pg and 20.5 pg and 19.2 pg
- MCHC (NU-Foxn1nu nude mice [1]; Retro-orbital): 42.6 g/dL and 44.2 g/dL and 42.9 g/dL
- MCV (NU-Foxn1nu nude mice [1]; Retro-orbital): 44.5 fL and 46.3 fL and 44.8 fL
- MPV (NU-Foxn1nu nude mice [1]; Retro-orbital): 5.6 fL and 6.1 fL and 5.2 fL
- Monocytes (NU-Foxn1nu nude mice [1]; Retro-orbital): 0.91 109 cells/L and 0.87 109 cells/L and 0.47 109 cells/L
- Neutrophils (NU-Foxn1nu nude mice [1]; Retro-orbital): 3.45 109 cells/L and 3.24 109 cells/L and 2.71 109 cells/L
- RDW-CV (NU-Foxn1nu nude mice [1]; Retro-orbital): 14.2% and 14.7% and 14.6%
- adverse effects on urine analyses (NU-Foxn1nu nude mice [2]; [6]): no adverse effects
- Creatinine in Urine (NU-Foxn1nu nude mice [2]; [7]): 59 mg/dL
- Protein/Creatinine in Urine (NU-Foxn1nu nude mice [2]; [7]): 8814
- Glucose in Urine (NU-Foxn1nu nude mice [2]; [8]): 40 mg/dL and 20 mg/dL
- Protein in Urine (NU-Foxn1nu nude mice [2]; [8]): 80 mg/dL and 52 mg/dL
- Glucose in Urine (NU-Foxn1nu nude mice [2]; Retro-Orbital group (I5 1.4 mg/kg), single mice): 30 mg/dL
- Creatinine in Urine (NU-Foxn1nu nude mice [2]; [9]): 56 mg/dL and 57 mg/dL and 61 mg/dL
- Protein/Creatinine in Urine (NU-Foxn1nu nude mice [2]; [9]): 10536 and 9221 and 16383
- Tumor Take (%) ([3]; Day 7): 0%
- Tumor Take (%) ([3]; Day 10): 12.5%
- Tumor Growth (mm3) ([3]; Day 10, individual tumors): 10.7 mm3
- Tumor Take (%) ([3]; Day 13): 12.5%
- Tumor Growth (mm3) ([3]; Day 13, individual tumors): 7.7 mm3
- Tumor Take (%) ([3]; Day 16): 25%
- Tumor Growth (mm3) ([3]; Day 16, individual tumors): 9.4 mm3 and 8.5 mm3
- Tumor Take (%) ([3]; Day 20): 25%
- Tumor Growth (mm3) ([3]; Day 20, individual tumors): 7.4 mm3 and 10.1 mm3
- Tumor Take (%) ([3]; Day 23): 37.5%
- Tumor Growth (mm3) ([3]; Day 23, individual tumors): 8 mm3 and 10.9 mm3 and 9.7 mm3
- Tumor Take (%) ([3]; Day 28): 62.5%
- Tumor Growth (mm3) ([3]; Day 28, individual tumors): 9.8 mm3 (2×) and 10.8 mm3 and 10.9 mm3 and 11.6 mm3 and 8.7 mm3
- tumor volumes and weights on day 28 ([3]; PANC1 cells pre-treated 24 h with 20 µM, injected s.c. into nude mice): significantly reduced volumes and weights
- tumor take and growth ([3]; PANC1 cells pre-treated 24 h with 20 µM, injected s.c. into nude mice, 28 days): clear delay in tumor take and growth
- Tumor Weight ([3]; individual tumors): 0.1301 g and 0.0568 g and 0.1068 g and 0.0882 g and 0.0887 g and 0.1001 g
- adverse effects on plasma blood analyses (NU-Foxn1nu nude mice [4]; [6]): no adverse effects
- GGT (NU-Foxn1nu nude mice [4]; Intra-Peritoneal group (I5 1.4 mg/kg), d17, single mice): < 3 UI/L
- Serum Creatinine (NU-Foxn1nu nude mice [4]; [10]): 0.2 mg/dL and 0.17 mg/dL and 0.22 mg/dL
- GGT (NU-Foxn1nu nude mice [4]; Retro-Orbital group (I5 1.4 mg/kg), d17, single mice): < 3 UI/L
- Serum Creatinine (NU-Foxn1nu nude mice [4]; [11]): 0.17 mg/dL and 0.2 mg/dL and 0.21 mg/dL
- Total Bilirubin (NU-Foxn1nu nude mice [4]; [11]): < 0.15 mg/dL and < 0.21 mg/dL
- BUN (NU-Foxn1nu nude mice [4]; [10]): 19 mg/dL and 18 mg/dL and 16 mg/dL
- Urea (NU-Foxn1nu nude mice [4]; [10]): 40 mg/dL and 39 mg/dL and 38 mg/dL and 35 mg/dL
- BUN (NU-Foxn1nu nude mice [4]; [11]): 16 mg/dL and 19 mg/dL
- Urea (NU-Foxn1nu nude mice [4]; [11]): 40 mg/dL and 34 mg/dL and 35 mg/dL
- Fold-change in tumor volume vs d0 ([5]; IP, 0 days post-treatment initiation): 1
- Fold-change in tumor volume vs d0 ([5]; IP, 3 days post-treatment initiation): 1.05 and 1.45 and 0.79 and 1.51 and 1.63 and 0.95 and 1.1
- Fold-change in tumor volume vs d0 ([5]; IP, 7 days post-treatment initiation): 1.29 and 1.56 and 0.79 and 1.32 and 1.71 and 0.86 and 1.49
- Fold-change in tumor volume vs d0 ([5]; IP, 10 days post-treatment initiation): 1.75 and 2.48 and 0.96 and 2.5 and 2.73 and 1.37 and 2.28
- Fold-change in tumor volume vs d0 ([5]; IP, 14 days post-treatment initiation): 2.21 and 4.16 and 0.85 and 2.92 and 3.98 and 1.35 and 3.75
- Fold-change in tumor volume vs d0 ([5]; IP, 17 days post-treatment initiation): 3.08 and 4.39 and 0.91 and 3.92 and 4.58 and 1.62 and 4.25
- tumor growth ([5]; PANC1 xenograft, 1.4 mg/kg i.p.): reduced tumor growth
- tumor growth [5, 12]: reduced tumor growth
- tumor volume at conclusion of the experiment [5, 12]: statistically significant effect on tumor volume
- tumor weight at conclusion of the experiment [5, 12]: marked reduction in tumor weight
- Fold-change in tumor volume vs d0 ([5]; RO, 0 days post-treatment initiation): 1
- Fold-change in tumor volume vs d0 ([5]; RO, 3 days post-treatment initiation): 0.66 and 0.95 and 1.12 and 1.34 and 1.68
- Fold-change in tumor volume vs d0 ([5]; RO, 7 days post-treatment initiation): 0.81 and 1.29 and 1.57 and 1.05 and 1.08
- Fold-change in tumor volume vs d0 ([5]; RO, 10 days post-treatment initiation): 0.74 and 2.21 and 2.36 and 1.14 and 1.44
- Fold-change in tumor volume vs d0 ([5]; RO, 14 days post-treatment initiation): 0.85 and 2.64 and 3.43 and 1.26 and 1.18
- Fold-change in tumor volume vs d0 ([5]; RO, 17 days post-treatment initiation): 1.43 and 3.89 and 4.46 and 1.56 and 1.13
- adverse effects on weight and neurological perturbations (Irwin's test) (C57Bl6 mice): no adverse effects

Source: PMC10959927, “Platinum iodido drugs show potential anti-tumor activity, affecting cancer cell metabolism and inducing ROS and senescence in gastrointestinal cancer cells” (Communications Biology, 2024)
